In patent publication EP0465913B1, “Diaminotrifluoromethylpyrimidine derivatives, process for their production and phospholipase A2 inhibitor containing them” (ISHIHARA SANGYO KAISHA, LTD., priority 1990, dated 1992):
Like-named read-outs stand apart in the source and are kept apart here.

Experiments:
[1] = Acute toxicity, intravenous injection (LD50); assay type: in vivo; settings: mouse, in vivo, iv, ddy male mice, sodium salt, mortality over one week
Description: Administration route: Intravenous injection
Using ddy male mice (body weight: 25 - 30 g), each test group consisted of 5 mice. A test compound was dissolved in the form of a sodium salt in a physiological saline or in a 5% glucose aqueous solution, and intravenously injected in an amount of 0.1 ml/10 g body weight. After the injection, the mortality rate was obtained over one week, and the median lethal dose LD50 (mg/kg) was determined.

[2] = tested on: experimental acute pancreatitis model; test: Effects against acute pancreatitis (Test Example 8, closed duodenal loop method, lesion scores); assay type: in vivo, Crj-CD male rats; settings: sodium salt, 6 hours after ventrotomy; for inhibition in vivo at 10 mg/kg: Rattus norvegicus, 10 mg/kg single intravenous injection
Outline: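 Closed duodenal loop pancreatitis in male Crj-CD rats (n=3) under halothane/nitrous oxide; sodium-salt compounds given i.v. into tail vein by continuous infusion or bolus, controls untreated. At 6 h, four pancreatic lesions scored 0-3; inhibition % of total and hemorrhagic scores calculated versus control.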

[3] = target: T1, Porcine pancreatic phospholipase A2 (Sus scrofa, UniProt P00592); test: Phospholipase A2 inhibitory activity, method A (egg yolk lecithin substrate); assay type: biochemical; settings: 1,000 ppm, 37°C for 30 minutes, read-out: % inhibition of PLA2 (1,000 ppm)
T1 construct: purchased Boehringer Mannheim·Yamanouchi K.K. 161454·122416
Description: To 10 mg of egg yolk lecithin (manufactured by Wako Pure Chemical Industries Ltd.), 1 ml of glycerine, 2 ml of a 50 mM Tris-HCl buffer solution (pH7.5) [Tris(hydroxymethyl)aminomethane (manufactured by Nacalai Tesque K.K.) was adjusted to pH7.5 with hydrochloric acid], 0.5 ml of a 150 mM calcium chloride solution (calcium chloride was dissolved in a 50 mM Tris-HCl buffer solution) and 0.5 ml of a 0.05% Triton-X100 (manufactured by Nacalai Tesque K.K.) solution (Triton-X100 was dissolved in a 50 mM Tris-HCl buffer solution), were added and dispersed by an agate mortar or dispersed by an ultrasonic processor (Model W-225, manufactured by Heat System-Ultrasonics, Inc.) for 5 minutes (30W) to obtain a substrate.
Porcine pancreatic phospholipase A2 [(161454·122416) manufactured by Boehringer Mannheim·Yamanouchi K.K.] was used.
To a 96 well microtitration plate (flat bottom, manufactured by Sumitomo Bakelite Medical Co., Ltd.), 40 µl of the substrate, 5 µl of a solution prepared by dissolving 10 mg of a test compound in 500 µl of dimethylsulfoxide, followed by an addition of 500 µl of a 50 mM Tris-HCl buffer solution, and 5 µl of an enzyme solution of 20 ng/ml (prepared by diluting the enzyme in a 50 mM Tris-HCl buffer solution), were added and reacted at 37°C for 30 minutes. After termination of the reaction, the released free fatty acid was quantitatively analyzed in accordance with the ACS-ACOD (acyl CoA synthetase-acyl CoA oxidase) method [a kit of NEFA C test wako (manufactured by Wako Pure Chemical Industries, Ltd.) was used]. The quantitative analysis was made by means of Microplate ELISA Reader (Model 2550EIA Reader, manufactured by Bio-Rad Laboratories) at a wavelength of 540 nm. Separately, such experiments as mentioned above, were carried out at various concentrations (2 µg/ml, 1 µg/ml and 0.5 µg/ml) of phospholipase A2 without a test compound. Then, the concentration of the free fatty acid versus the concentration of phospholipase A2 was plotted.
From this standard curve, the apparent concentration of phospholipase A2 in the case with a test compound, was read. Then, the percent inhibition of the enzyme was calculated by the following formula. Percent inhibition (%) = (l -(A)/(B)) x 100 [formula] • A: Apparent enzyme concentration when a test compound is added. • B: True enzyme concentration when a test compound is added.

[4] = tested on: increased vascular permeability induced by acetic acid; test: Inhibitory activity on increased vascular permeability induced by acetic acid (Mouse Whittle method, method C); assay type: in vivo, ddy male mice; settings: amount of leaked dye
Description: Using ddy male mice, each test group consisted of 4 or 5 mice. A test compound was mixed with Tween 80 [polyoxyethylenesorbitan monooleate (manufactured by Nacalai Tesque K.K.)], and distilled water was added thereto to obtain a 2% Tween 80 suspension, or it was dissolved in the form of a salt in water to obtain an aqueous solution. A test compound was orally administered, and upon expiration of one hour from the administration, 0.7% acetic acid was intraperitonially injected to each mouse in an amount of 0.1 ml/10 g, and at the same time, 2% brilliant blue was intravenously injected into the tail vein in an amount of 0.1 ml/20 g. Thirty minutes after the injection of brilliant blue, the cervical vertebrae were dislocated under anesthesia by chloroform, and the abdorminal cavity was washed with 5 ml of a physiological saline. The washing solution was subjected to centrifugal separation at 3,000 rpm for 10 minutes, and the amount of the dye in the supernatant was measured at 600 nm absorbance by Microplate ELISA Reader (Model 2550EIA Reader, manufactured by Bio-Rad Laboratories). The inhibition rate of the amount of leaked dye in the group in which a test compound was administered relative to the control group was obtained by the following formula. Inhibition rate (%) = (l -(C)/(D)) x 100 [formula] • C: Amount of leaked dye in the group to which a test compound was administered. • D: Amount of leaked dye in the control group.

[5] = tested on: carrageenin edema; test: Inhibitory activity on carrageenin edema; assay type: in vivo, Wistar male rats; settings: rat, paw swelling volume three hours after carrageenin; for inhibition in vivo at 100 mg/kg: po, 3 h, dose 100 mg/kg orally, read-out: Inhibition rate (%)
Outline: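 Male Wistar rats (about 100 g, 5 per group) dosed orally at 200, 100, 50 or 25 mg/kg as 2% Tween 80 suspension or aqueous salt solution, 1 h before subplantar injection of 0.1 ml 1% λ-carrageenin. Paw swelling measured at 3 h; % inhibition versus control group mean swelling.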

[6] = target: T1, Porcine pancreatic phospholipase A2; test: Phospholipase A2 inhibitory activity, method B (L-α-dipalmitoylphosphatidylcholine substrate); assay type: biochemical; settings: 1,000 ppm, 37°C for 30 minutes, read-out: % inhibition of PLA2 (1,000 ppm)
Outline: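 Substrate: L-α-dipalmitoylphosphatidylcholine/sodium cholate mixed micelles in 250 mM NaCl, 100 mM Tris-HCl pH 8.0. Enzyme (10 µg/ml stock) incubated with compound in buffer containing CaCl2 and BSA, 30 min at 37 °C. Released free fatty acid measured by ACS-ACOD at 540 nm; % inhibition derived from apparent enzyme concentration read off a standard curve.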

[7] = tested on: increased vascular permeability induced by acetic acid; test: Inhibitory activity on increased vascular permeability induced by acetic acid (Rat Whittle method, method D); assay type: in vivo, SD (Crj: CD) male rats; settings: amount of leaked dye
Description: Using SD (Crj: CD) male rats, each test group consisted of from 3 to 5 rats. A test compound was mixed with Tween 80 [polyoxyethylenesorbitan monooleate (manufactured by Nacalai Tesque K.K.)], and distilled water was added thereto to obtain a 2% Tween 80 suspension, or it was dissolved in the form of a salt in water to obtain an aqueous solution. A test compound was orally administered, and one hour later, 0.7% acetic acid was intraperitonially injected to each rat in an amount of 0.05 ml/10 g, and at the same time, 2% brilliant blue was intravenously injected into the tail vein in an amount of 0.05 ml/20 g. Thirty minutes after the injection of brilliant blue, the cervical vertebrae were dislocated under anesthesia by chloroform, and the abdorminal cavity was washed with 10 ml of a physiological saline. The washing solution was subjected to centrifugal separation at 3,000 rpm for 10 minutes, and the amount of the dye in the supernatant was measured at 600 nm absorbance by Microplate ELISA Reader (Model 2550EIA Reader, manufactured by Bio-Rad Laboratories). The inhibition rate of the amount of leaked dye in the group to which a test compound was administered relative to the control group was obtained from the following formula, and the results are shown in Table 9. Inhibition rate (%) = (l -(C)/(D)) x 100 [formula] • C: Amount of leaked dye in the group to which a test compound was administered. • D: Amount of leaked dye in the control group.

[8] = read-out: Inhibition rate of hemorrhagic lesions (%)
[9] = read-out: Inhibition rate of pancreatitis lesions (%)

T1 sequence (P00592 23-146): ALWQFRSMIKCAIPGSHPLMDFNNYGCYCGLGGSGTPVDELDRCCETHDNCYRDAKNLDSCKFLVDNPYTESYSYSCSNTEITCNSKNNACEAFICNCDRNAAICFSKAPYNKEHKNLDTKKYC

SMILES | LD50 at 168 h [1] | inhibition at 1000 ppm [3] | Inhibition rate (%) ([4]; dose 20 mg/kg orally) | inhibition in vivo at 100 mg/kg [5] | also measured
C=CC(=O)Nc1cc(C(F)(F)F)cnc1NS(=O)(=O)CC [compound 49] | 175 mg/kg | 30% | 50% |  | Inhibition rate of hemorrhagic lesions (%) ([2]; 42 mg/kg continuous intravenous injection): 68%
CCCC(=O)Nc1cc(C(F)(F)F)cnc1NS(C)(=O)=O [Compound No. 1] | 100 to 150 mg/kg | 45% |  |  | inhibition in vivo at 10 mg/kg [2, 8]: 66%; inhibition in vivo at 10 mg/kg [2, 9]: 49%; Inhibition rate (%) ([4]; dose 50 mg/kg orally): 46%
CCCS(=O)(=O)Nc1ncc(C(F)(F)F)cc1NC(=O)C(F)(F)C(F)(F)F [compound 22] | > 100 mg/kg | 74% |  | 29% | Inhibition rate (%) ([4]; dose 10 mg/kg orally): 39%
CS(=O)(=O)Nc1ncc(C(F)(F)F)cc1NC(=O)C1CCCCC1 [compound 8] | > 25 mg/kg | 81% | 48% |  | 
CS(=O)(=O)Nc1ncc(C(F)(F)F)cc1NC(=O)OC1CCCCC1 [compound 121] |  |  |  |  | inhibition at 1000 ppm [6]: 90%; Inhibition rate (%) ([7]; dose 12.5 mg/kg orally): 31%
CS(=O)(=O)Nc1ncc(C(F)(F)F)cc1NC(=O)c1ccccc1F [compound 57] | 83 mg/kg | 57% | 43% | 35% | Inhibition rate of hemorrhagic lesions (%) ([2]; 20 mg/kg continuous intravenous injection): 60%
CS(=O)(=O)Nc1ncc(C(F)(F)F)cc1NC(=O)c1ccncc1 [compound 82] |  |  |  |  | Inhibition rate (%) ([5]; dose 50 mg/kg orally): 19%; inhibition at 1000 ppm [6]: 38%; Inhibition rate (%) ([7]; dose 25 mg/kg orally): 38%
CCCCCC(=O)Nc1cc(C(F)(F)F)cnc1NS(C)(=O)=O [Compound No. 3] | > 100 mg/kg | 67% |  | 20% | inhibition in vivo at 10 mg/kg [2, 8]: 49%; inhibition in vivo at 10 mg/kg [2, 9]: 51%; Inhibition rate (%) ([4]; dose 50 mg/kg orally): 58%
O=C(NNc1ncc(C(F)(F)F)cc1NC(=O)C(F)(F)C(F)(F)F)c1ccccc1 [compound 39] |  | 41% | 53% | 25% | 
